Assay results reported in patent US20060079453A1, “Hla binding peptides and their uses” (priority 2002, published 2006).
“And” between values parts separate entries of the source, which are not always exact repeats. Identical values can stand only once. Like-named read-outs stand apart in the source and are kept apart here. No end group written: not given here.

Experiments:
Test in all cases: biochemical
HLA-B*0702 = HLA-B*0702 (Homo sapiens, UniProt P01889); assay type: binding
HLA-B*3501 = HLA-B*3501 (Homo sapiens, UniProt P01889, A329T/A93T/A95T/C349S/D201E/D98Y/E176V/E187L/E204Q/E69T/I218V/K202T/L119I/Q94N/R155S/R180L/S121R/S35A/S48A/T118I/V127L/V306I/V36M/Y140S/Y91F); conditions: B*3501 binding affinity (IC50)
HLA-B*5301 = HLA-B*5301 (Homo sapiens, UniProt P01889, A329T/A93T/A95T/C349S/D201E/D98Y/E176V/E187L/E204Q/E69T/G107R/I218V/K202T/L105A/L119I/N104I/Q94N/R106L/R155S/R180L/S101N/S121R/S35A/S48A/T118I/V127L/V306I/V36M/Y140S/Y91F); assay type: binding
H-2Dd = H-2Dd (Mus musculus, UniProt P01900); assay type: binding, murine
H-2Dd, sequence (P01900 25-365): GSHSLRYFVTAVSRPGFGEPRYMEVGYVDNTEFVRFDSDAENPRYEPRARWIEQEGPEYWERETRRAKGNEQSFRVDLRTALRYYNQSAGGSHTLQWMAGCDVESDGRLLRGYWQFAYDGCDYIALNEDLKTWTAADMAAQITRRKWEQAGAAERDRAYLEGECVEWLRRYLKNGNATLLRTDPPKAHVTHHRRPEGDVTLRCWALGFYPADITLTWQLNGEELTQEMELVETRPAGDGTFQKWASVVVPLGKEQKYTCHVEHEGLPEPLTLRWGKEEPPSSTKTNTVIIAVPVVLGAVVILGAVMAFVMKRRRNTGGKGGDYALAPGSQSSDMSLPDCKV
H-2Dd, sequence (P61769 21-119, further chain): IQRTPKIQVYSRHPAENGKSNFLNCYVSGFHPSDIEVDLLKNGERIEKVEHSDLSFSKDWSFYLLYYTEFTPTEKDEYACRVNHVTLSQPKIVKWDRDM

HLA-B*5101 = HLA-B*5101 (Homo sapiens, UniProt P01889, A329T/A93T/A95T/C349S/D138N/D201E/D98Y/E187L/E204Q/E69T/G107R/I218V/K202T/L105A/L119W/N104I/Q94N/R106L/R155S/R180L/S101N/S121T/S35A/S48A/V306I/V36M/Y195H/Y91F); conditions: B*5101 binding affinity (IC50)
HLA-B*5401 = HLA-B*5401 (Homo sapiens, UniProt P01889, A329T/C349S/D138N/D201E/E176V/E187T/E204Q/E69G/I76V/K202T/L119W/R155S/R180L/S121T/S35A/S48A/V127L/V306I/V36M/Y140L); assay type: binding
H-2 Db = H-2 Db (Mus musculus, UniProt P01899); assay type: binding, murine; conditions: Db
H-2 Db, sequence (P61769 21-119): as the sequence (P61769 21-119, further chain) above
H-2 Db, sequence (P01899 25-362): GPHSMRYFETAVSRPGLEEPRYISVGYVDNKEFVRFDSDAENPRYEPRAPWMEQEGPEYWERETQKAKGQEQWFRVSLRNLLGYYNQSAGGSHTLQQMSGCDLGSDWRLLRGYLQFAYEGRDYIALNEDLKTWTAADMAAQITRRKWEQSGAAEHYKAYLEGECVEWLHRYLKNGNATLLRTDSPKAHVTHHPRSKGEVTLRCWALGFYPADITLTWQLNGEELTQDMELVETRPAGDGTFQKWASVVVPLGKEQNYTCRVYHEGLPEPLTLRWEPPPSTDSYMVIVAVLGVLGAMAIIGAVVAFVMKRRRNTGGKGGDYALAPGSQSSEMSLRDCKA

HLA-DR DRB1*0301 (DR3) = HLA-DR DRB1*0301 (DR3) (Homo sapiens, UniProt P01903+P01911, A100K/A102G/A103R/A169T/F55Y/I96L/K41T/L162R/M171V/P40S/Q125H/Q178H/Q39Y/R42S/S66N/T106N/T262R/W38E/Y61H); assay type: binding
HLA-DR DRB1*0301 (DR3), sequence (P01903 26-254 limits assumed, other chains not shown): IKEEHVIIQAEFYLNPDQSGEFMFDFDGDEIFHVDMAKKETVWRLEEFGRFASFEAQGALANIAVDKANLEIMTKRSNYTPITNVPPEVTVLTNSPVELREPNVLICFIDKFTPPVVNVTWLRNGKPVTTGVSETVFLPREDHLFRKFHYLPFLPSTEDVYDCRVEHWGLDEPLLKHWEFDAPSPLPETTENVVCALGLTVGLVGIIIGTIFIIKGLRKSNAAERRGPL

HLA-DR DRB1*0401 (DR4) = HLA-DR DRB1*0401 (DR4) (Homo sapiens, UniProt P01903+P01911, A100K/A169T/F76Y/I96L/K127E/L162R/M171V/N62H/P40V/Q125Y/R42H/S133A/S149N/S66Y/V115G/V209L/W38E); assay type: binding; conditions: DRB1 *0401
HLA-DR DRB1*0405 (DR4) = HLA-DR DRB1*0405 (DR4) (Homo sapiens, UniProt P01903+P01911, A100R/A169T/D86S/F76Y/I96L/K127E/L162R/M171V/N62H/P40V/Q125Y/R42H/S133A/S149N/S66Y/V115G/V209L/W38E); assay type: binding; conditions: DRB1 *0405
HLA-DR DRB1*0701 (DR7) = HLA-DR DRB1*0701 (DR7) (Homo sapiens, UniProt P01903+P01911, A100R/A102G/A103Q/D57E/D86V/E43K/F76Y/K127E/L162R/M171V/P40G/Q125H/Q99D/R33Q/R42Y/R54Q/S133A/S66F/T210M/V115G/Y107V/Y59L/Y89S); assay type: binding; conditions: DRB1 *0701
HLA-DR DRB1*0802 (DR8) = HLA-DR DRB1*0802 (DR8) (Homo sapiens, UniProt P01903+P01911, A100R/A103L/A169T/F76Y/H45Y/I96F/K41T/L162R/M171V/P40S/Q125H/Q178H/Q39Y/Q99D/R218S/R42G/S66Y/V115G/W38E); assay type: binding
HLA-DR DRB1*0901 (DR9) = HLA-DR DRB1*0901 (DR9) (Homo sapiens, UniProt P01903+P01911, A100R/A103E/D57H/D86V/F55Y/F60I/F76Y/I96F/K127E/L162R/M171V/P40D/Q125H/Q99R/R33Q/R42F/S133A/S66N/T210M/V115G/W38K/Y107V/Y59G/Y89S); assay type: binding; conditions: DRB1 *0901
HLA-DR DRB1*1101 (DR11) = HLA-DR DRB1*1101 (DR11) (Homo sapiens, UniProt P01903+P01911, A100R/A169T/A87E/I96F/K41T/L162R/M171V/P40S/Q125H/Q178H/Q39Y/Q99D/R42S/S66Y/T262R/V115G/W38E); assay type: binding; conditions: DRB1 *1101
HLA-DR DRB1*1101 (DR11), sequence (P01903 26-254 limits assumed, other chains not shown): as above

HLA-DR DRB1*1501 (DR15) = HLA-DR DRB1*1501 (DR15) (Homo sapiens, UniProt P01903+P01911); assay type: binding; conditions: DRBI *1501
HLA-DR DRB3*0101 (DR52) = HLA-DR DRB3*0101 (DR52) (Homo sapiens, UniProt P01903+P79483); assay type: binding
HLA-DR DRB4*0101 (DR53) = HLA-DR DRB4*0101 (DR53) (Homo sapiens, UniProt P01903+P13762, G164S); assay type: binding; conditions: DRB4 *0101
HLA-DR DRB5*0101 (DR51) = HLA-DR DRB5*0101 (DR51) (Homo sapiens, UniProt P01903+Q30154); assay type: binding; conditions: DRB5 *0101
[1] = molecular target: HLA-DQ DQA1*0301/B*0301 (DQ7) (Homo sapiens, UniProt P01909+P01920, A209T/C70Q/DUP78-78/E183D/F237L/G63E/I129T/K197E/L178F/L74F/L98V/Q57E/Q76R/S185I/S97I/T49S/V73L); assay type: binding

Molecule	IC50 (HLA-B*0702; B*0702 binding affinity (IC50)) [nM]	IC50 (HLA-B*3501)	IC50 (H-2Dd) [nM]	further results
TPAGPGPGVF	334	0.374 µM		IC50 (HLA-B*5301; B*5301 binding affinity (IC50)): 2630 nM
RGPYRAAVTI			2	
RGPYRAFKTI			2.3	
FPVGPGPGL		0.014 µM		IC50 (HLA-B*5101): 138 nM; IC50 (HLA-B*5301; B*5301 binding affinity (IC50)): 32 nM; IC50 (HLA-B*5401; B*5401 binding affinity (IC50)): 246 nM
AGPYRAFVTI			5	
RGPYKAFVTI			13	
CC(C)C[C@H](NC(=O)CNC(=O)[C@H](CCC(N)=O)NC(=O)[C@H](Cc1ccc(O)cc1)NC(=O)[C@@H](NC(=O)[C@H](Cc1ccc(O)cc1)NC(=O)CNC(=O)[C@@H](N)CCCNC(=N)N)C(C)C)C(=O)O			> 37000	IC50 (H-2 Db): > 44000 nM
RGPYRAFVAI			1.3	
LGFVFTLTV	849	> 72 µM		IC50 (HLA-B*5301; B*5301 binding affinity (IC50)): > 93000 nM
CC[C@H](C)[C@H](NC(=O)[C@@H](N)CCCCN)C(=O)N[C@@H](Cc1ccccc1)C(=O)NCC(=O)N[C@@H](CO)C(=O)N[C@@H](CC(C)C)C(=O)N[C@@H](C)C(=O)N[C@@H](Cc1ccccc1)C(=O)N[C@@H](CC(C)C)C(=O)N1CCC[C@H]1C(=O)N[C@@H](CCC(=O)O)C(=O)N[C@@H](CO)C(=O)N[C@@H](Cc1ccccc1)C(=O)N[C@@H](CC(=O)O)C(=O)NCC(=O)N[C@@H](CC(=O)O)C(=O)N1CCC[C@H]1C(=O)N[C@@H](C)C(=O)O				IC50 (HLA-DR DRB1*0301 (DR3)): 74.2 µM; IC50 (HLA-DR DRB1*0401 (DR4)): 1200 nM; IC50 (HLA-DR DRB1*0405 (DR4)): 37 nM; IC50 (HLA-DR DRB1*0701 (DR7)): 377 nM; IC50 (HLA-DR DRB1*0802 (DR8)): > 75.4 µM; IC50 (HLA-DR DRB1*0901 (DR9)): 15.8 µM; IC50 (HLA-DR DRB1*1101 (DR11)): > 52.6 µM; IC50 (HLA-DR DRB1*1501 (DR15)): 2260 nM; IC50 (HLA-DR DRB3*0101 (DR52)): 43.7 µM; IC50 (HLA-DR DRB4*0101 (DR53)): 10 µM; IC50 (HLA-DR DRB5*0101 (DR51)): 8.01 µM; IC50 [1]: 320 nM
RGPYRAFVKI			3.9	
RGPYRAFATI			2.1	
CSCC[C@H](NC(=O)[C@@H](NC(=O)[C@H](CCC(=O)O)NC(=O)[C@H](CCSC)NC(=O)[C@H](CC(N)=O)NC(=O)[C@H](CCC(=O)O)NC(=O)[C@H](CC(N)=O)NC(=O)[C@H](CO)NC(=O)[C@H](C)N)[C@@H](C)O)C(=O)O			> 37000	IC50 (H-2 Db): 41 nM and 33 nM
RGKYRAFVTI			67	
KGPYRAFVTI			5.8	
RGPFRAFVTI			0.78	
FPLTFGWCI	48000	0.164 µM		IC50 (HLA-B*5101): 63 nM; IC50 (HLA-B*5301; B*5301 binding affinity (IC50)): 36 nM; IC50 (HLA-B*5401; B*5401 binding affinity (IC50)): 14 nM
SPGPGPGL	173	2.34 µM		IC50 (HLA-B*5101): 3540 nM; IC50 (HLA-B*5301; B*5301 binding affinity (IC50)): 25600 nM; IC50 (HLA-B*5401; B*5401 binding affinity (IC50)): 53300 nM
GGAYRLIVF			3.5	
YPLTFGWCI	54300			IC50 (HLA-B*5401; B*5401 binding affinity (IC50)): 79 nM
RGPYRKFVTI			3.6	

Molecule	IC50 (HLA-B*0702; B*0702 binding affinity (IC50)) [nM]	IC50 (HLA-B*3501)	IC50 (H-2Dd) [nM]	further results
RGPGRYFVTI			2.7	
FPVRPQVPI	94	0.124 µM		IC50 (HLA-B*5101): 39 nM; IC50 (HLA-B*5401; B*5401 binding affinity (IC50)): 9.1 nM
TPTGWGLAI	76	5.14 µM		IC50 (HLA-B*5301; B*5301 binding affinity (IC50)): 1340 nM
RPQVPLRPMTI		> 19 µM and 10.5 µM		IC50 (HLA-B*5101): 8080 nM; IC50 (HLA-B*5401; B*5401 binding affinity (IC50)): > 15100 nM
TPAIRGPGPGF				IC50 (HLA-B*0702; read-out: B*0702 binding affinity (IC50)): 144 nM; IC50 (HLA-B*5301; read-out: B*5301 binding affinity (IC50)): 2740 nM; IC50 (HLA-B*5401; read-out: B*5401 binding affinity (IC50)): 31800 nM
RGPARAFVTI			1.04	
RGPYRAYVTI			2.1	
WGPSLYSI			17	
RPQVPLRPI	367	> 23.2 µM		IC50 (HLA-B*5101): > 9000 nM; IC50 (HLA-B*5301; B*5301 binding affinity (IC50)): 85300 nM
WGPSLYSIL			6.6	
FPLTFGWCFKI	52600	4.99 µM		IC50 (HLA-B*5101): 590 nM; IC50 (HLA-B*5301; B*5301 binding affinity (IC50)): 188 nM
RGPGRAYVTI			14	
QPRAPIRPI	6770	> 72 µM		IC50 (HLA-B*5101): > 55000 nM; IC50 (HLA-B*5401; B*5401 binding affinity (IC50)): > 100000 nM
GPKVKQWPI	5500	> 72 µM		IC50 (HLA-B*5101): > 55000 nM; IC50 (HLA-B*5401; B*5401 binding affinity (IC50)): > 50000 nM
FSPRRNGYL			2.7	
RGAYRAFVTI			3.4	
GPGHKARVI	1690	> 72 µM		IC50 (HLA-B*5101): > 55000 nM; IC50 (HLA-B*5401; B*5401 binding affinity (IC50)): > 50000 nM
APCNFFTSA	43	8.09 µM		IC50 (HLA-B*5301; B*5301 binding affinity (IC50)): > 22400 nM; IC50 (HLA-B*5401; B*5401 binding affinity (IC50)): 0.61 nM
RGPYRAFVTK			91	
RGPGRAFYTI			7.2	
